Data published in article PMC7749107, “Identification and functional characterization of the first molluscan neuromedin U receptor in the slug, Deroceras reticulatum” (Scientific Reports, 2020).
pEC50: −log10 of the molar value. “Also recorded” adds a separate entry of the source. Like-named read-outs stand apart in the source and are kept apart here. Where a SMILES comes first, the peptide text is derived from it.

Columns and labels:
DretNmU-Ra = biological target: T1, DretNmU-Ra (Deroceras reticulatum, UniProt A0A888YNE3); test: Calcium mobilisation (FLIPR Calcium 6 fluorescence) receptor activation assay, Sf9 cells stably expressing DretNmU-Ra; assay type: cell-based; conditions: for Binding activity (receptor response, ∆fluorescence) at single concentration: 500 nM peptide, three to four replicates, result in words
T1 sequence (A0A888YNE3 1-505): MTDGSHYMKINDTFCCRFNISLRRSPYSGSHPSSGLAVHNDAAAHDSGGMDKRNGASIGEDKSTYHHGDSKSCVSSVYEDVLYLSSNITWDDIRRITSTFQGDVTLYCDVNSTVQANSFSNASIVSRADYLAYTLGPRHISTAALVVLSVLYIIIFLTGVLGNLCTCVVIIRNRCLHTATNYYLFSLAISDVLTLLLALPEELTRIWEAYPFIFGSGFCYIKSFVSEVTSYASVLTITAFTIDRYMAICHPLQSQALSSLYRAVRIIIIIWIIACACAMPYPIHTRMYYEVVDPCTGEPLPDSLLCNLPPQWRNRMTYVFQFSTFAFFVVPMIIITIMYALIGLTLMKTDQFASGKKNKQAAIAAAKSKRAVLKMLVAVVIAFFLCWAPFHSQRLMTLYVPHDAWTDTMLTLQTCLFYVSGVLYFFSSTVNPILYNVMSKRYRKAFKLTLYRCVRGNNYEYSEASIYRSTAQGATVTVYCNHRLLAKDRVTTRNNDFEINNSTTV
Experimental: (§1) Sf9 cells were cultured in a 50 ml-Erlenmeyer flask while shaking at 145 rpm at 28 °C using Insectagro Sf9 Medium (Corning) supplemented with 5% heat-inactivated fetal bovine serum (HyClone, USA) and antibiotics (penicillin and streptomycin; Gibco). Three µg of either pIB/DretNmU-Ra or pIB/DretNmU-Rb plasmid was added to 100 μl of serum-free medium, and 15% CellFectin II (Invitrogen) in 100 μl serum-free medium was prepared, and both were placed at room temperature for 5 min. Samples were combined by pipetting and placed at room temperature for another 20 min. The plasmid-CellFectin II mixture was then added to a T-25 flask containing a layer of Sf9 cells covering about 70% of the surface, and incubated overnight. The next morning, the medium was replaced with fresh medium containing 50 μg/ml blasticidin. […] When culture was confluent, the recombinant cells were lifted and transferred to suspension cultures and grown until the exponential growth phase, and then stock cultures were frozen in liquid nitrogen. These frozen stock cell lines were thawed, cultivated for several passages in media containing 20 μg/ml blasticidin, and used for the ligand binding assays.
(§2) Two days before the binding assay, ~ 50,000 Sf9 cells expressing the DretNmU-Ra or -Rb from suspension cultures were dispensed into each well of a black 96-well plate (Corning C3603) and incubated at 28 °C overnight. At 48 h, cells were rinsed once with 100 μl of fresh medium without FBS. After removing the media, cells were incubated with 95 μl of 1 × FLIPR Calcium 6 reagent (Molecular Devices, USA) containing 2.5 mM probenecid at room temperature in the dark for 1 h. The Calcium 6 reagent-loaded cells were transferred to the Flexstation 3 multi-mode microplate reader (Molecular Devices) to measure fluorescence change (∆fluorescence) before and after loading 5 μl of peptide ligands (20×), detecting emission at 535 nm with excitation at 485 nm. Fluorescence measurements from each well on the column were taken every 5 s for 4 min. The peptide ligand was added by automatic pipettor once at 30 s from the beginning, and 5 μl of 5 μM ionomycin was added at 3 min to confirm calcium activity. Baseline fluorescence was determined by averaging 5 time points from each well prior to treatment with ligand and the resulting response was expressed as a percent increase in fluorescence relative to the baseline value.
(§3) For the initial screening and structure–activity tests, each cell line was exposed to a single concentration of 500 nM of each peptide or control. For the dosage-response assay, threefold serial dilutions of selected ligands with water were used, giving final ligand concentrations between 8 pM and 1.5 μM. The mean response from four wells receiving the same treatment in the same plate was regarded as one replicate, and at least three replicates from independent assays on different cell plates were analyzed. Data were transformed into a log scale and fit into the non-linear regression curve. EC50 values were obtained by statistical analysis using the sum of squares F-test function using GraphPad Prism version 8.0 (San Diego, CA, USA).

DretNmU-Rb = biological target: T2, DretNmU-Rb (Deroceras reticulatum, UniProt A0A888YNJ5); test: Calcium mobilisation (FLIPR Calcium 6 fluorescence) receptor activation assay, Sf9 cells stably expressing DretNmU-Rb; assay type: cell-based; conditions: for Binding activity (receptor response, ∆fluorescence) at single concentration: 500 nM peptide, three to four replicates, result in words
T2 sequence (A0A888YNJ5 1-502): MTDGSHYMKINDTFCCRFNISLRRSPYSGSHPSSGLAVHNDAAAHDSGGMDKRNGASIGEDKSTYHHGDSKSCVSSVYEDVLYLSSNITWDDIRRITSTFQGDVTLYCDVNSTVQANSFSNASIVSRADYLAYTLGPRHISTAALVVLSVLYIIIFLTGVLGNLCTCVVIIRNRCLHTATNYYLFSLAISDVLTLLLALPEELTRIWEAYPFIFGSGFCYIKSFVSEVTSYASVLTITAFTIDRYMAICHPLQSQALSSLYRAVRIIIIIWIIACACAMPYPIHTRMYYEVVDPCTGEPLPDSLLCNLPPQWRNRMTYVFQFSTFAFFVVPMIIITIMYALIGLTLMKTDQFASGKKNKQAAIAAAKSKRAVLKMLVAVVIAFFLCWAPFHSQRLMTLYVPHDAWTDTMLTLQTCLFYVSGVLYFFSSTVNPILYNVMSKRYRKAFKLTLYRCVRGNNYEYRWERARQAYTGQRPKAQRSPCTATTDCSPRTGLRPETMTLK
Experimental: as §1, §2, §3

Deroceras reticulatum = test: Injection bioassay of the peptides in the slug; assay type: in vivo; conditions: n = 4; for Atypical behaviors after injection: 10 nmol peptide in 5 μl water injected into the foot, observed for initial 30 min, compared with water control; for Mortality after 3 days: 10 nmol peptide in 5 μl water injected into the foot of adult slugs, 18 °C
Experimental: Two peptides, QPPLPRYa and QPPVPRYa, were dissolved in purified water to obtain a 2 mM concentration and individually injected into the adult slugs (270–520 mg in weight). A Hamilton syringe was used to inject a dose of 10 nmol peptide in 5 μl water or water only for control into the posterior part of the foot of the slug (n = 4). The foot was chosen as the injection site in order to avoid possible damage to internal organs, which are primarily located underneath the mantle. […] Since the treated slugs secreted a large amount of the defensive mucus, weight loss was assessed by weighing the slugs on a VWR B2-Series Analytical Balance immediately before the treatment and again 3 days later. Post treatment weights were obtained after slugs were placed under wet conditions (slugs placed in a ventilated 8 oz plastic container lined with damp tissue paper) or under dry conditions (same container type without damp tissue paper). Slugs were placed under these conditions approximately 30 min after injection. These plastic containers were maintained in a growth chamber (Thermo Scientific Precision Model 818) at 18 °C and 12 h photoperiod. Statistical analysis was performed by One-way ANOVA followed by Dunnett’s multiple comparisons test using GraphPad Prism version 8.0 (GraphPad Software, CA, USA).

[1] = Sf9 cells stably expressing DretNmU-Ra
[2] = Sf9 cells stably expressing DretNmU-Ra, calcium fluorescence, threefold serial dilutions 8 pM to 1.5 μM, four to five replicates from independent assays, each the mean of four wells, read-out: EC50, normalized concentration-response
[3] = Sf9 cells stably expressing DretNmU-Rb
[4] = Sf9 cells stably expressing DretNmU-Rb, calcium fluorescence, threefold serial dilutions 8 pM to 1.5 μM, four to five replicates from independent assays, each the mean of four wells, read-out: EC50, normalized concentration-response

Compound	Binding activity (receptor response, ∆fluorescence) at single concentration (DretNmU-Ra; [1])	pEC50 (DretNmU-Ra; [2])	Binding activity (receptor response, ∆fluorescence) at single concentration (DretNmU-Rb; [3])	pEC50 (DretNmU-Rb; [4])	pEC50 (DretNmU-Ra)	pEC50 (DretNmU-Rb)	Atypical behaviors after injection (Deroceras reticulatum)	Mortality after 3 days (Deroceras reticulatum; dry conditions) [%]	Mortality after 3 days (Deroceras reticulatum; wet conditions) [%]
CC(C)C[C@H](NC(=O)[C@@H]1CCCN1C(=O)[C@@H]1CCCN1C(=O)[C@@H](N)CCC(N)=O)C(=O)N1CCC[C@H]1C(=O)N[C@@H](CCCNC(=N)N)C(=O)N[C@@H](Cc1ccccc1)C(N)=O [QPPLPRFa] (H-QPPLPRF-NH2; N-terminus assumed)	retained normal activity	7.26	retained normal activity	6.89	–	–	–	–	–
QPPLPRAa [modified QPPLPRYa, alanine replacement of Y7]	almost completely disappeared	–	almost completely disappeared	–	–	–	–	–	–
QPPLARYa [modified QPPLPRYa, alanine replacement of P5]	almost completely disappeared	–	almost completely disappeared	–	–	–	–	–	–
CC(C)C[C@H](NC(=O)[C@@H]1CCCN1C(=O)[C@@H]1CCCN1C(=O)[C@@H](N)CCC(N)=O)C(=O)N1CCC[C@H]1C(=O)N[C@@H](CCCNC(=N)N)C(=O)N[C@@H](Cc1ccc(O)cc1)C(N)=O [QPPLPRYa] (H-QPPLPRY-NH2; N-terminus assumed)	evoked distinct binding	–	evoked distinct binding	–	8.85	8.39	triggered a series of distinct, atypical behaviors	100	50
QPPLPAYa [modified QPPLPRYa, alanine replacement of R6]	almost completely disappeared	–	almost completely disappeared	–	–	–	–	–	–
CC[C@H](C)[C@H](NC(=O)[C@H](CCCNC(=N)N)NC(=O)[C@@H]1CCCN1C(=O)[C@H](CCCNC(=N)N)NC(=O)[C@@H]1CCCN1C(=O)[C@@H](NC(=O)[C@H](C)N)C(C)C)C(N)=O [AVPRPRIa] (H-AVPRPRI-NH2; N-terminus assumed)	evoked distinct binding	8.19	evoked distinct binding	7.91	–	–	–	–	–
LPRYa [N-terminally truncated tetra-peptide of QPPLPRYa]	all activity was lost	–	all activity was lost	–	–	–	–	–	–
QPPLPRWa [modified QPPLPRYa, C-terminal Y replaced with W]	dramatically reduced in its binding activity; also recorded: activity was eliminated	–	dramatically reduced in its binding activity; also recorded: activity was eliminated	–	–	–	–	–	–
PLPRYa [N-terminally truncated pentapeptide of QPPLPRYa]	gradual decrease of the binding ability	–	gradual decrease of the binding ability	–	–	–	–	–	–
CC(C)[C@H](NC(=O)[C@@H]1CCCN1C(=O)[C@@H]1CCCN1C(=O)[C@@H](N)CCC(N)=O)C(=O)N1CCC[C@H]1C(=O)N[C@@H](CCCNC(=N)N)C(=O)N[C@@H](Cc1ccc(O)cc1)C(N)=O [QPPVPRYa] (H-QPPVPRY-NH2)	evoked distinct binding	–	evoked distinct binding	–	8.19	7.90	triggered a series of distinct, atypical behaviors	50	0
CC(C)C[C@H](NC(=O)[C@@H]1CCCN1C(=O)[C@@H]1CCCN1C(=O)[C@@H](N)CC(N)=O)C(=O)N1CCC[C@H]1C(=O)N[C@@H](CCCNC(=N)N)C(=O)N[C@@H](Cc1ccc(O)cc1)C(N)=O [NPPLPRYa] (H-NPPLPRY-NH2; N-terminus assumed)	–	7.49	–	7.60	–	–	–	–	–
